We go through three molecules from patent US5922709A, “Antifungal composition” (Banyu Pharmaceutical Co., Ltd., priority 1995, dated 1999).

What all share (format): cell-based
In experiment [1] the test system is Candida albicans IFO 1385. The experiment can be described thus: Minimum inhibitory concentration (agar dilution method) of miconazole in the presence or absence of BE-31405, Candida albicans IFO 1385. The settings on record: for MIC of miconazole: yeast morphology agar, 37° C., 2 days. In general terms: In agar dilution the substance is mixed into plates at graded concentrations.

In experiment [2] the test system is Candida albicans IFO 1270. The experiment is described as follows: Minimum inhibitory concentration (agar dilution method) of itraconazole in the presence and absence of BE-31405, Candida albicans IFO 1270. The settings on record: for MIC of intraconazole: 37° C., 2 days. How it is done: (§1) Now, the minimum inhibitory concentrations (MIC, by an agar dilution method) of itraconazole against Candida albicans IFO 1270, IFO 1385 and ATCC90028 in the presence and absence of BE-31405, are shown in Tables 3, 4 and 5, respectively. As the agar medium for the measurement of MIC, a culture medium having 1% of glucose and 1.2% of agar added to a yeast nitrogen base, manufactured by Difico Co., was used, and after inoculation of the strain solution, culturing was carried out at 37° C. for 2 days, whereupon the concentration at which no growth of the strain was observed, was judged to be MIC.

The test system of experiment [3] is Candida albicans IFO 1385. The experiment can be described thus: Minimum inhibitory concentration (agar dilution method) of itraconazole in the presence and absence of BE-31405, Candida albicans IFO 1385. The settings on record: for MIC of intraconazole: 37° C., 2 days. How it is done:
as §1

Experiment [4] has as its system Candida albicans ATCC 90028. The experiment can be described thus: Minimum inhibitory concentration (agar dilution method) of itraconazole in the presence and absence of BE-31405, Candida albicans ATCC 90028. The settings on record: for MIC of intraconazole: 37° C., 2 days. How it is done:
as §1

The mark [5] stands for this setting: BE-31405 0.0 μg/ml (absence), yeast nitrogen base, 1% glucose, 1.2% agar.
Setting [6] is: itraconazole combined with BE-31405, IFO 1270 (Table 3).
The mark [7] stands for this setting: with BE-31405 0.025 μg/ml, yeast nitrogen base agar.
The mark [8] stands for this setting: with BE-31405 0.1 μg/ml, yeast nitrogen base agar.
Where [9] appears, read: with BE-31405 0.39 μg/ml, yeast nitrogen base agar.
Where [10] appears, read: itraconazole combined with BE-31405, IFO 1385 (Table 4).
Where [11] appears, read: with BE-31405 0.05 μg/ml, yeast nitrogen base agar.
[12] abbreviates: itraconazole combined with BE-31405, ATCC 90028 (Table 5).

Values after ≈ are worked out from the molar mass of the structure shown.

The MIC is the least concentration at which growth counts as inhibited. Low readings indicate inhibition by little substance, high ones a need for much substance.

On to `Clc1ccc(COC(Cn2ccnc2)c2ccc(Cl)cc2Cl)c(Cl)c1` (stereo not drawn) [miconazole], for which the MIC of miconazole in experiment [1] (BE-31405 0.0 μg/ml (absence)) was 12.5 µg/mL; in experiment [1] (with BE-31405 0.1 μg/ml) it was 1.56 µg/mL; in experiment [1] (with BE-31405 0.2 μg/ml), 0.78 µg/mL; in experiment [1] (with BE-31405 0.39 μg/ml), 0.39 µg/mL; in experiment [1] (with BE-31405 0.78 μg/ml), 0.05 µg/mL. Moreover, in experiment [1] (in the presence of a low concentration of BE-31405), the “antifungal activities of miconazole in the presence of a low concentration of BE-31405” value was “substantially enhanced”. The “fractional inhibitory concentration index” value in experiment [1] (miconazole combined with BE-31405) was found to be 0.2. Moreover, in experiment [1] (miconazole combined with BE-31405, judged from fractional inhibitory concentration index), the “effect of combined use” value is given as “synergistic effect”.
`CC(=O)OC1C2OC3(OCC45CC6C(C)CCC6C6(C=O)CC4C=C(C(C)C)C65C(=O)O)OC2OC1C3O` (stereo not drawn) [BE-31405]: the MIC in experiment [1] (Candida albicans, IFO1385, 48 h, BE31405 alone under this test condition (Table 2)) is 1.56 µg/mL (≈ 2.93 µM); in experiment [2] (Candida albicans, IFO1270, 48 h, BE31405 alone under this test condition (Table 3)), 0.78 µg/mL (≈ 1.46 µM); in experiment [3] (Candida albicans, IFO1385, 48 h, BE31405 alone under this test condition (Table 4)), 1.56 µg/mL (≈ 2.93 µM); in experiment [4] (Candida albicans, ATCC90028, 48 h, BE31405 alone under this test condition (Table 5)), 1.56 µg/mL (≈ 2.93 µM).
As to `CCC(C)n1ncn(-c2ccc(N3CCN(c4ccc(OCC5COC(Cn6cncn6)(c6ccc(Cl)cc6Cl)O5)cc4)CC3)cc2)c1=O` (stereo not drawn) [itraconazole], the MIC of intraconazole in experiment [2] (setting [5]) is > 100 µg/mL; in experiment [2] (with BE-31405 0.006 μg/ml, yeast nitrogen base agar) it was 0.05 µg/mL; in experiment [2] (setting [7]), 0.013 µg/mL; in experiment [2] (setting [8]), 0.013 µg/mL; in experiment [2] (setting [9]), 0.013 µg/mL; in experiment [3] (setting [5]), > 100 µg/mL. Besides, the MIC of intraconazole in experiment [3] (setting [7]) was 1.56 µg/mL; in experiment [3] (setting [11]) it was 0.2 µg/mL; in experiment [3] (setting [8]) it was 0.1 µg/mL; in experiment [3] (setting [9]) it was 0.05 µg/mL; in experiment [4] (setting [5]) it was > 100 µg/mL; in experiment [4] (setting [7]) it was 1.56 µg/mL. Further, the MIC of intraconazole was determined as 0.2 µg/mL in experiment [4] (setting [11]), 0.2 µg/mL in experiment [4] (setting [8]) and 0.1 µg/mL in experiment [4] (setting [9]). The “effect of combined use” value in experiment [2] (setting [6]), in experiment [3] (setting [10]) and in experiment [4] (setting [12]) was “strong synergistic effects” each time. Further, the “fractional inhibitory concentration index” value in experiment [2] (setting [6]), in experiment [3] (setting [10]) and in experiment [4] (setting [12]) was “at most 0.2” in each case. Also, the “antifungal activities of itraconazole in the presence of a low concentration of BE-31405” value in experiment [2] (low concentration of BE-31405, IFO 1270 (Table 3)) is listed as “substantially enhanced”; in experiment [3] (low concentration of BE-31405, IFO 1385 (Table 4)), “substantially enhanced”; in experiment [4] (low concentration of BE-31405, ATCC 90028 (Table 5)) it was “substantially enhanced”.
